Data published in patent US20230091047A1 (priority 2019, published 2023).
Read-outs that look alike come from different tables or passages of the source.

Columns and labels:
[1] = test system: HBV (HepG2.117 cell line, inducibly HBV producing); test: Anti-HBV activity: intracellular HBV DNA by real-time PCR in HepG2.117 cells after 3 days of treatment; assay type: cell-based, hepatitis B virus
Summary of the method: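 Tet-off HepG2.117; HBV replication induced (no doxycycline); serial compound dilutions, 3 d; intracellular HBV DNA by real-time PCR, HBV-specific primers/probe.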

[2] = in vitro; assay type: cell-based; settings: human, HepG2 or HepG2.117 cells, ATPlite, mean value
Summary of the method: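 Luminescent ATP quantitation served as the viability endpoint following a 3- or 4-day incubation with test compounds.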

[3] = Hepatitis B virus, HepG2.117, 72 h, HepG2.117 cells, 3 days of treatment, intracellular HBV DNA by real-time PCR; mean value; read-out: EC50 (μM, mean value)
[4] = 3-days incubation (unmarked values)
[5] = Hepatitis B virus, HepG2.117, 72 h, HepG2.117 cells, intracellular HBV DNA by real-time PCR, 3 days of treatment, mean value; read-out: EC50 (μM, mean value)
[6] = 3-days incubation (not marked with *)

Cc1cc(-c2ccc(-n3c(NC(C)C)nc4c(c3=O)C[C@@H](C)N(C(=O)c3ccc(Cl)c(Cl)c3)C4)cc2)n[nH]1 [Compound C243, (6R)-7-(3,4-dichlorobenzoyl)-6-methyl-3-[4-(5-methyl-1H-pyrazol-3-yl)phenyl]-2-[(propan-2-yl)amino]-5,6,7,8-tetrahydropyrido[3,4-d]pyrimidin-4(3H)-one]
EC50 [1, 3]: 0.23 µM | CC50 at 3 days [2, 4]: 28.7 µM

CC(C)Nc1nc2c(c(=O)n1-c1ccc(S(C)(=O)=O)cc1)CCN(C(=O)c1ccn3ncnc3c1)C2 [Compound C365]
EC50 [1, 3]: > 10 µM | CC50 at 3 days [2, 4]: > 50 µM

CNC(=O)c1ccc(-n2c(NC(C)Cc3c[nH]c4ccc(F)cc34)nc3c(c2=O)C[C@@H](C)N(C(=O)c2ccc(Cl)c(Cl)c2)C3)cc1 (stereo partly shown) [Compound C548]
EC50 [1, 5]: 0.58 µM | CC50 at 3 days [2, 6]: 10.3 µM

CNC(=O)c1ccc(-n2c(N[C@@H](C)c3ccc(F)c(F)c3)nc3c(c2=O)C[C@@H](C)N(C(=O)c2ccc(Cl)c(Cl)c2)C3)cc1 (single isomer, unassigned) [Compound C417b]
EC50 [1, 5]: 0.06 µM | CC50 at 3 days [2, 6]: 7.3 µM

COc1ccccc1-n1c(OC)nc2c(c1=O)CCN(C(=O)c1ccc(Cl)c(Cl)c1)C2 [Compound C54, 7-(3,4-dichlorobenzoyl)-2-methoxy-3-(2-methoxyphenyl)-5,6,7,8-tetrahydropyrido[3,4-d]pyrimidin-4(3H)-one]
EC50 [1, 3]: 4.59 µM | CC50 at 3 days [2, 4]: 29.7 µM

O=C(c1ccc(Cl)c(Cl)c1)N1CCc2c(nc(NCc3ccccc3)n(-c3ccccc3)c2=O)C1 [Compound C33, 2-(benzylamino)-7-(3,4-dichlorobenzoyl)-3-phenyl-5,6,7,8-tetrahydropyrido[3,4-d]pyrimidin-4(3H)-one]
EC50 [1, 3]: 4.27 µM | CC50 at 3 days [2, 4]: 24.4 µM

CNC(=O)c1ccc(-n2c(NC3CCOC3)nc3c(c2=O)C[C@@H](C)N(C(=O)c2ccc(Cl)c(Cl)c2)C3)cc1 (stereo partly shown) [Compound C559]
EC50 [1, 5]: 0.6 µM | CC50 at 3 days [2, 6]: > 50 µM

CNC(=O)c1ccc(-n2c(NC(C)C)nc3c(c2=O)C[C@@H](C)N(C(=O)c2cc(F)c(Cl)cc2Cl)C3)cc1 [Compound C472]
EC50 [1, 5]: 0.92 µM | CC50 at 3 days [2, 6]: > 50 µM

CNC(=O)c1ncc(-n2c(NC(C)C)nc3c(c2=O)C[C@@H](C)N(C(=O)c2ccc(Cl)c(Cl)c2)C3)n1C [Compound C419]
EC50 [1, 5]: 0.19 µM | CC50 at 3 days [2, 6]: > 50 µM

CNC(=O)c1ccc(-n2c(NC(C)Cn3cncn3)nc3c(c2=O)C[C@@H](C)N(C(=O)c2ccc(Cl)c(Cl)c2)C3)cc1 (stereo partly shown) [Compound C540]
EC50 [1, 5]: 15.8 µM | CC50 at 3 days [2, 6]: > 50 µM

CNC(=O)OCC[C@H](Nc1nc2c(c(=O)n1-c1ccc(C(=O)NC)cc1)C[C@@H](C)N(C(=O)c1ccc(Cl)c(Cl)c1)C2)C1CC1 (single isomer, unassigned) [Compound C257, (3*S)-3-cyclopropyl-3-({(6R)-7-(3,4-dichlorobenzoyl)-6-methyl-3-[4-(methylcarbamoyl)phenyl]-4-oxo-3,4,5,6,7,8-hexahydropyrido[3,4-d]pyrimidin-2-yl}amino)propyl methylcarbamate]
EC50 [1, 3]: 0.84 µM | CC50 at 3 days [2, 4]: > 50 µM

CNC(=O)c1ccc(-n2c(NC(C)c3ccc(S(C)(=O)=O)cc3)nc3c(c2=O)C[C@@H](C)N(C(=O)c2ccc(Cl)c(Cl)c2)C3)cc1 (stereo partly shown) [Compound C412]
EC50 [1, 5]: 1.6 µM | CC50 at 3 days [2, 6]: > 50 µM

CCCn1c(NCc2ccc(OC)cc2)nc2c(c1=O)CCN(C(=O)c1ccc(Cl)c(Cl)c1)C2 [Compound C71, 7-(3,4-dichlorobenzoyl)-2-{[(4-methoxyphenyl)methyl]amino}-3-propyl-5,6,7,8-tetrahydropyrido[3,4-d]pyrimidin-4(3H)-one]
EC50 [1, 3]: 7.04 µM | CC50 at 3 days [2, 4]: > 50 µM

COc1ccccc1CNc1nc2c(c(=O)n1-c1ccccc1OC)CCN(C(=O)c1ccc(Cl)c(Cl)c1)C2 [Compound C17, 7-(3,4-dichlorobenzoyl)-3-(2-methoxyphenyl)-2-{[(2-methoxyphenyl)methyl]amino}-5,6,7,8-tetrahydropyrido[3,4-d]pyrimidin-4(3H)-one]
EC50 [1, 3]: 0.97 µM | CC50 at 4 days ([2]; 4-days incubation (values marked with *)): 28.9 µM

CNC(=O)c1ccc(-n2c(N[C@@H](C)c3ccc(OC)cc3)nc3c(c2=O)C[C@@H](C)N(C(=O)c2ccc(Cl)c(Cl)c2)C3)cc1 (single isomer, unassigned) [Compound C347b]
EC50 [1, 5]: 0.27 µM | CC50 at 3 days [2, 6]: > 50 µM

CNC(=O)c1ccc(-n2c(NC(C)C)nc3c(c2=O)C[C@@H](C)N(C(=O)c2ccc(Cl)c(C#N)c2)C3)cc1 [Compound C686]
EC50 [1, 5]: 0.2 µM | CC50 at 3 days [2, 6]: > 50 µM

CNC(=O)c1ccc(-n2c(NC[C@H](C)c3cccc(OC)c3)nc3c(c2=O)C[C@@H](C)N(C(=O)c2ccc(Cl)c(Cl)c2)C3)cc1 (single isomer, unassigned) [Compound C436a]
EC50 [1, 5]: 0.99 µM | CC50 at 3 days [2, 6]: 22.3 µM

CNC(=O)c1ccc(-n2c(NC(C)c3ncn(C)n3)nc3c(c2=O)C[C@@H](C)N(C(=O)c2ccc(Cl)c(Cl)c2)C3)cc1 (stereo partly shown) [Compound C484]
EC50 [1, 5]: 3.09 µM | CC50 at 3 days [2, 6]: > 50 µM

CC(C)N(CCO)c1nc2c(c(=O)[nH]1)CCN(C(=O)c1ccc(Cl)c(Cl)c1)C2 [Compound C97, 7-(3,4-dichlorobenzoyl)-2-[(2-hydroxyethyl)(propan-2-yl)amino]-5,6,7,8-tetrahydropyrido[3,4-d]pyrimidin-4(3H)-one]
EC50 [1, 3]: 3.22 µM | CC50 at 3 days [2, 4]: > 50 µM

COc1ccc(CNc2nc3c(c(=O)n2C2CC2)CCN(C(=O)c2ccc(Cl)c(Cl)c2)C3)cc1 [Compound C70, 3-cyclopropyl-7-(3,4-dichlorobenzoyl)-2-{[(4-methoxyphenyl)methyl]amino}-5,6,7,8-tetrahydropyrido[3,4-d]pyrimidin-4(3H)-one]
EC50 [1, 3]: 10.8 µM | CC50 at 3 days [2, 4]: 23.1 µM

CC(C)Nc1nc2c(c(=O)n1-c1ccc(S(C)(=O)=O)cc1)CCN(C(=O)c1ccc(Cl)c(Cl)c1)C2 [Compound C85, 7-(3,4-dichlorobenzoyl)-3-[4-(methanesulfonyl)phenyl]-2-[(propan-2-yl)amino]-5,6,7,8-tetrahydropyrido[3,4-d]pyrimidin-4(3H)-one]
EC50 [1, 3]: 0.85 µM | CC50 at 3 days [2, 4]: > 50 µM

CC(C)Nc1nc2c(c(=O)n1-c1ccc(-c3ncccn3)cc1)CCN(C(=O)c1ccc(Cl)c(Cl)c1)C2 [Compound C187, 7-(3,4-dichlorobenzoyl)-2-[(propan-2-yl)amino]-3-[4-(pyrimidin-2-yl)phenyl]-5,6,7,8-tetrahydropyrido[3,4-d]pyrimidin-4(3H)-one]
EC50 [1, 3]: 0.71 µM | CC50 at 3 days [2, 4]: > 45 µM

CNC(=O)c1cc(-n2c(N[C@@H](C)c3ccc(OC(F)(F)F)cc3)nc3c(c2=O)C[C@@H](C)N(C(=O)c2ccc(Cl)c(Cl)c2)C3)n(C)n1 [Compound C618]
EC50 [1, 5]: 0.09 µM | CC50 at 3 days [2, 6]: > 45 µM

CNC(=O)c1ccc(-n2c(NC(C)C)nc3c(c2=O)C[C@@H](C)N(C(=O)c2cc4ccc(Cl)c(F)c4[nH]2)C3)cc1 [Compound C594]
EC50 [1, 5]: 0.04 µM | CC50 at 3 days [2, 6]: 26.1 µM

CNC(=O)c1cc(-n2c(NC(C)C)nc3c(c2=O)C[C@@H](C)N(C(=O)c2ccc(Cl)c(Cl)c2)C3)nn1C [Compound C292, 3-[(6R)-7-(3,4-dichlorobenzoyl)-6-methyl-4-oxo-2-[(propan-2-yl)amino]-5,6,7,8-tetrahydropyrido[3,4-d]pyrimidin-3(4H)-yl]-N,1-dimethyl-1H-pyrazole-5-carboxamide]
EC50 [1, 3]: 0.04 µM | CC50 at 3 days [2, 4]: > 50 µM

CNC(=O)c1ccc(-n2c(NC(C)C)nc3c(c2=O)C[C@@H](C)N(C(=O)c2ccc(Cl)c(Cl)c2)C3)c(Cl)c1 [Compound C293, 3-chloro-4-[(6R)-7-(3,4-dichlorobenzoyl)-6-methyl-4-oxo-2-[(propan-2-yl)amino]-5,6,7,8-tetrahydropyrido[3,4-d]pyrimidin-3(4H)-yl]-N-methylbenzamide]
EC50 [1, 3]: 0.06 µM | CC50 at 3 days [2, 4]: 34.9 µM

COc1ccccc1-n1c(N[C@@H](C)CO)nc2c(c1=O)CCN(C(=O)c1ccc(Cl)c(Cl)c1)C2 (single isomer, unassigned) [Compound C62Ba, 7-(3,4-dichlorobenzoyl)-2-{[(2*S)-1-hydroxypropan-2-yl]amino}-3-(2-methoxyphenyl)-5,6,7,8-tetrahydropyrido[3,4-d]pyrimidin-4(3H)-one]
EC50 [1, 3]: 3.65 µM | CC50 at 3 days [2, 4]: > 50 µM

COc1ccc(CNc2nc3c(c(=O)[nH]2)CCN(C(=O)c2ccc(Cl)c(C)c2)C3)cc1 [Compound C60, 7-(4-chloro-3-methylbenzoyl)-2-{[(4-methoxyphenyl)methyl]amino}-5,6,7,8-tetrahydropyrido[3,4-d]pyrimidin-4(3H)-one]
EC50 [1, 3]: 3.25 µM | CC50 at 3 days [2, 4]: 23.8 µM

CC(C)Nc1nc2c(c(=O)n1-c1cccc3c1CNC3=O)C[C@@H](C)N(C(=O)c1ccc(Cl)c(Cl)c1)C2 [Compound C323, (6R)-7-(3,4-dichlorobenzoyl)-6-methyl-3-(1-oxo-2,3-dihydro-1H-isoindol-4-yl)-2-[(propan-2-yl)amino]-5,6,7,8-tetrahydropyrido[3,4-d]pyrimidin-4(3H)-one]
EC50 [1, 3]: 0.35 µM | CC50 at 3 days [2, 4]: > 50 µM

CNC(=O)c1ccc(-n2c(NC(C)C)nc3c(c2=O)C[C@@H](C)N(C(=O)c2cc4c(Br)cc(Cl)cc4[nH]2)C3)cc1 [Compound C576]
EC50 [1, 5]: 0.05 µM | CC50 at 3 days [2, 6]: > 50 µM

CNC(=O)c1ccc(-n2c(N[C@@H]3CCOc4ccccc43)nc3c(c2=O)C[C@@H](C)N(C(=O)c2ccc(Cl)c(Cl)c2)C3)cc1 (single isomer, unassigned) [Compound C526a]
EC50 [1, 5]: 0.28 µM | CC50 at 3 days [2, 6]: > 50 µM

CC(C)Nc1nc2c(c(=O)n1-c1ccc(S(C)(=O)=O)cc1)CCN(C(=O)C1Cc3ccccc3O1)C2 (stereo not shown) [Compound C360]
EC50 [1, 3]: > 50 µM | CC50 at 3 days [2, 4]: > 50 µM
